Measurements taken from DBAASP.
≈ marks a conversion by molar mass, not a printed value.

Tests used:
Assay in all cases: ≥ marks a high value that may be exact or a test limit, other limits are often not marked, values filed in µg/mL are converted to µM
[1] = system: Staphylococcus aureus
[2] = system: Escherichia coli
[3] = system: Pseudomonas aeruginosa
[4] = system: Pseudomonas aeruginosa ATCC 9027
[5] = system: Staphylococcus aureus ATCC 6538
[6] = system: Acinetobacter baumannii
[7] = system: Escherichia coli ATCC 25922
[8] = system: Klebsiella pneumoniae ATCC 700603
[9] = system: Staphylococcus aureus ATCC 25923
[10] = system: Candida albicans
[11] = system: Pseudomonas aeruginosa ATCC 27853
[12] = system: Acinetobacter baumannii ATCC 19606

| Structure (SMILES) | MIC [1] [µM] | MIC [2] [µM] | MIC [3] [µM] | MIC [4] [µM] | also measured |
| --- | --- | --- | --- | --- | --- |
| CC(C)C[C@H](NC(=O)CNC(=O)[C@H](C)NC(=O)[C@H](CC(C)C)NC(=O)[C@H](CCCCN)NC(=O)[C@H](C)NC(=O)[C@H](CCCCN)NC(=O)[C@H](CC(C)C)NC(=O)CNC(=O)[C@H](C)NC(=O)[C@H](Cc1c[nH]c2ccccc12)NC(=O)[C@H](CCCCN)NC(=O)[C@H](C)NC(=O)[C@H](CCCCN)NC(=O)[C@H](CC(C)C)NC(=O)CNC(=O)[C@H](C)NC(=O)[C@H](CC(C)C)NC(=O)[C@@H](N)CCCCN)C(=O)N[C@@H](CCCCN)C(=O)N[C@@H](C)C(N)=O [KLAGLKAKWAGLKAKLAGLKA] | > 120 | > 120 | > 120 |  |  |
| CC(C)C[C@H](NC(=O)[C@H](C)NC(=O)[C@H](CCCCN)NC(=O)[C@H](CCCCN)NC(=O)[C@H](CC(C)C)NC(=O)[C@H](C)NC(=O)[C@H](CCCCN)NC(=O)[C@H](CCCCN)NC(=O)[C@H](CC(C)C)NC(=O)[C@H](CCCCN)NC(=O)[C@H](CCCCN)NC(=O)[C@H](CC(C)C)NC(=O)[C@H](C)NC(=O)[C@H](CCCCN)NC(=O)[C@H](CCCCN)NC(=O)[C@H](Cc1ccccc1)NC(=O)[C@H](CC(C)C)NC(=O)[C@H](CCCCN)NC(=O)[C@H](Cc1c[nH]c2ccccc12)NC(=O)[C@@H](N)CCCCN)C(N)=O [KWKLFKKALKKLKKALKKAL] |  |  |  | 4.15 (≈ 10 µg/mL) | MIC [5]: 4.15 µM (≈ 10 µg/mL) |
| CC(C)C[C@H](NC(=O)[C@H](CC(C)C)NC(=O)[C@H](CCCCN)NC(=O)[C@H](C)NC(=O)[C@H](CC(C)C)NC(=O)[C@H](CCCCN)NC(=O)[C@H](CCCCN)NC(=O)[C@H](C)NC(=O)[C@H](CC(C)C)NC(=O)[C@H](CCCCN)NC(=O)[C@H](CCCCN)NC(=O)[C@H](C)NC(=O)[C@@H](N)Cc1ccccc1)C(N)=O [FAKKLAKKLAKLL] |  |  |  | 3.4 (≈ 5 µg/mL) | MIC [5]: 3.4 µM (≈ 5 µg/mL) |
| CC[C@H](C)[C@H](NC(=O)[C@H](Cc1c[nH]c2ccccc12)NC(=O)[C@H](CCCCN)NC(=O)[C@@H](NC(=O)[C@H](CC(C)C)NC(=O)[C@H](CO)NC(=O)[C@H](CCCCN)NC(=O)CN)C(C)C)C(=O)N[C@H](C(=O)N[C@@H](CCCCN)C(=O)N[C@@H](CO)C(=O)N[C@H](C(=O)N[C@@H](CCCN=C(N)N)C(=O)N[C@@H](CCCCN)C(=O)N[C@@H](C)C(N)=O)C(C)C)C(C)C [GKSLVKWIVKSVRKA] |  |  |  | > 25 | MIC [6]: 25 µM (≈ 42.5 µg/mL); MIC [7]: > 25 µM; MIC [8]: > 25 µM; MIC [9]: > 25 µM |
| CC(C)C[C@H](NC(=O)CNC(=O)[C@H](C)NC(=O)[C@H](CC(C)C)NC(=O)[C@H](CCCCN)NC(=O)[C@H](CCCCN)NC(=O)[C@H](C)NC(=O)[C@H](CC(C)C)NC(=O)CNC(=O)[C@H](C)NC(=O)[C@H](Cc1c[nH]c2ccccc12)NC(=O)[C@H](CCCCN)NC(=O)[C@H](CCCCN)NC(=O)[C@H](C)NC(=O)[C@H](CC(C)C)NC(=O)CNC(=O)[C@H](C)NC(=O)[C@H](CC(C)C)NC(=O)[C@@H](N)CCCCN)C(=O)N[C@@H](C)C(=O)N[C@@H](CCCCN)C(N)=O [KLAGLAKKWAGLAKKLAGLAK] | 7.49 (≈ 16 µg/mL) | 3.74 (≈ 8 µg/mL) | 7.49 (≈ 16 µg/mL) |  |  |
| CC[C@H](C)[C@H](NC(=O)[C@H](CCCCN)NC(=O)[C@H](CS)NC(=O)[C@H](C)NC(=O)[C@@H](NC(=O)[C@H](Cc1ccccc1)NC(=O)CNC(=O)[C@H](CC(C)C)NC(=O)CNC(=O)[C@@H](NC(=O)[C@H](CCCCN)NC(=O)[C@H](CCCCN)NC(=O)[C@H](CC(C)C)NC(=O)[C@H](CC(N)=O)NC(=O)[C@H](CCCCN)NC(=O)[C@H](CC(C)C)NC(=O)[C@@H](NC(=O)[C@H](CO)NC(=O)[C@H](CC(C)C)NC(=O)[C@H](CCSC)NC(=O)[C@@H](N)CO)C(C)C)C(C)C)C(C)C)C(=O)N[C@@H](CC(N)=O)C(=O)N[C@@H](CCCCN)C(=O)N[C@@H](CCC(N)=O)C(=O)N[C@@H](CS)C(=O)O [SMLSVLKNLKKVGLGFVACKINKQC] | > 200 | 200 (≈ 544 µg/mL) |  |  | MIC [10]: > 200 µM |
| CC(C)C[C@H](NC(=O)CNC(=O)[C@@H](NC(=O)[C@@H]1CCCN1C(=O)[C@H](CC(C)C)NC(=O)CNC(=O)[C@H](CC(N)=O)NC(=O)[C@H](CC(N)=O)NC(=O)[C@H](Cc1c[nH]c2ccccc12)NC(=O)[C@@H](NC(=O)[C@H](CCCN=C(N)N)NC(=O)[C@H](CS)NC(=O)[C@H](CCCN=C(N)N)NC(=O)[C@H](Cc1cnc[nH]1)NC(=O)[C@H](CCCCN)NC(=O)[C@H](CCCCN)NC(=O)[C@H](CCCN=C(N)N)NC(=O)[C@@H](N)CCCCN)C(C)C)[C@@H](C)O)C(=O)N[C@@H](Cc1ccc(O)cc1)C(=O)N[C@@H](CCCN=C(N)N)C(=O)N[C@@H](Cc1c[nH]c2ccccc12)C(=O)N[C@@H](CS)C(N)=O [KRKKHRCRVWNNGLPTGLYRWC] |  |  |  |  | MIC [5]: 8 µM (≈ 22.2 µg/mL) |
| CC(C)C[C@H](NC(=O)[C@@H](NC(=O)[C@H](CCCCN)NC(=O)[C@H](CCCCN)NC(=O)[C@H](C)NC(=O)[C@H](CC(C)C)NC(=O)[C@H](CCCCN)NC(=O)[C@H](C)NC(=O)[C@H](CC(C)C)NC(=O)[C@H](CC(C)C)NC(=O)[C@H](CCCCN)NC(=O)[C@H](C)NC(=O)[C@@H](N)Cc1ccccc1)C(C)C)C(N)=O [FAKLLAKLAKKVL] |  |  |  | 69.3 (≈ 99.9 µg/mL) | MIC [5]: 3.47 µM (≈ 5 µg/mL) |
| CSCC[C@H](NC(=O)[C@@H](NC(=O)[C@H](CCCN=C(N)N)NC(=O)[C@H](Cc1ccccc1)NC(=O)[C@H](C)NC(=O)[C@H](C)NC(=O)[C@H](CCCCN)NC(=O)[C@H](CCCN=C(N)N)NC(=O)[C@H](Cc1c[nH]c2ccccc12)NC(=O)[C@H](C)NC(=O)[C@@H]1CCCN1C(=O)[C@@H](N)CCCN=C(N)N)C(C)C)C(=O)N[C@@H](CCCN=C(N)N)C(=O)N[C@@H](C)C(=O)N[C@@H](CS)C(=O)N[C@H](C(N)=O)C(C)C [RPAWRKAAFRVMRACV] |  |  | 2.09 (≈ 4 µg/mL) |  |  |
| CC(C)C[C@H](NC(=O)CNC(=O)[C@@H]1CCCN1C(=O)[C@H](CCCCN)NC(=O)[C@H](CCCCN)NC(=O)[C@@H]1CCCN1C(=O)[C@H](CCCN=C(N)N)NC(=O)[C@H](CC(=O)O)NC(=O)[C@@H](N)CCCCN)C(=O)N[C@@H](CS)C(=O)N1CCC[C@H]1C(=O)N[C@@H](C)C(=O)N[C@@H](C)C(=O)N[C@@H](CCCCN)C(=O)N[C@@H](CCCCN)C(=O)N[C@@H](C)C(=O)N[C@@H](C)C(=O)N[C@@H](C)C(=O)N[C@@H](C)C(=O)N[C@@H](CCCCN)C(=O)N[C@@H](C)C(N)=O [KDRPKKPGLCPAAKKAAAAKA] | 118 (≈ 250 µg/mL) | > 236 | 58.9 (≈ 125 µg/mL) |  | MIC [7]: 14.7 µM (≈ 31.2 µg/mL); MIC [11]: 29.5 µM (≈ 62.5 µg/mL); MIC [10]: 236 µM (≈ 500 µg/mL); MIC [9]: 118 µM (≈ 250 µg/mL) |
| CC[C@H](C)[C@H](NC(=O)[C@H](CC(C)C)NC(=O)[C@H](Cc1cnc[nH]1)NC(=O)[C@@H](NC(=O)[C@@H](NC(=O)[C@@H](NC(=O)CNC(=O)[C@H](CC(C)C)NC(=O)[C@H](C)NC(=O)[C@H](C)NC(=O)[C@H](CCCCN)NC(=O)CNC(=O)[C@@H](NC(=O)[C@H](Cc1cnc[nH]1)NC(=O)[C@H](CCCCN)NC(=O)[C@@H](NC(=O)[C@@H](NC(=O)[C@H](CC(=O)O)NC(=O)[C@H](CC(C)C)NC(=O)[C@H](Cc1ccccc1)NC(=O)CN)C(C)C)[C@@H](C)CC)C(C)C)C(C)C)C(C)C)[C@@H](C)O)C(=O)N[C@@H](CC(N)=O)C(=O)N[C@@H](CCC(N)=O)C(N)=O [GFLDVIKHVGKAALGVVTHLINQ] | 6.58 (≈ 16 µg/mL) | 26.3 (≈ 64 µg/mL) |  |  | MIC [10]: 13.2 µM (≈ 32 µg/mL) |
| CC[C@H](C)[C@H](NC(=O)[C@H](CCCN=C(N)N)NC(=O)[C@@H](NC(=O)[C@@H](NC(=O)[C@@H]1CCCN1C(=O)[C@@H](NC(=O)[C@@H](NC(=O)[C@@H](NC(=O)[C@@H]1CCCN1C(=O)CNC(=O)CNC(=O)[C@H](CCCCN)NC(=O)[C@H](CCCCN)NC(=O)[C@H](Cc1c[nH]c2ccccc12)NC(=O)[C@H](C)NC(=O)[C@H](CCCN=C(N)N)NC(=O)[C@H](CC(C)C)NC(=O)[C@@H](NC(=O)[C@H](CCCCN)NC(=O)[C@H](CCCN=C(N)N)NC(=O)CNC(=O)[C@H](CC(C)C)NC(=O)[C@H](CCCCN)NC(=O)[C@H](CCCN=C(N)N)NC(=O)[C@H](CC(C)C)NC(=O)CNC(=O)[C@@H](N)CCCCN)[C@@H](C)CC)[C@@H](C)CC)[C@@H](C)CC)C(C)C)[C@@H](C)CC)[C@@H](C)CC)C(=O)O [KGLRKLGRKILRAWKKGGPIIVPIIRI] |  |  |  |  | MIC [6]: 3.25 µM (≈ 10 µg/mL); MIC [12]: 2.3 µM (≈ 7.07 µg/mL) |
| CC[C@H](C)[C@H](NC(=O)[C@H](Cc1ccccc1)NC(=O)[C@H](CO)NC(=O)[C@H](CCCCN)NC(=O)[C@H](Cc1c[nH]c2ccccc12)NC(=O)[C@@H](N)CCCCN)C(=O)N[C@@H](CCCCN)C(=O)N[C@@H](CCCCN)C(=O)N[C@@H](CC(C)C)C(=O)N[C@H](C(=O)N[C@@H](CO)C(=O)N[C@@H](CCCCN)C(=O)N[C@@H](CCCCN)C(=O)N[C@@H](CC(C)C)C(=O)N[C@@H](Cc1cnc[nH]1)C(=O)N[C@@H](CO)C(=O)N[C@@H](C)C(=O)N[C@@H](CCCCN)C(=O)N[C@@H](CCCCN)C(=O)N[C@@H](Cc1ccccc1)C(N)=O)[C@@H](C)O [KWKSFIKKLTSKKLHSAKKF] |  |  | > 20.5 |  |  |
| CC[C@H](C)[C@H](NC(=O)[C@H](CC(C)C)NC(=O)[C@H](CCC(N)=O)NC(=O)[C@@H](NC(=O)[C@H](CC(C)C)NC(=O)[C@H](CCCN=C(N)N)NC(=O)[C@H](CCCN=C(N)N)NC(=O)[C@@H](NC(=O)[C@H](C)NC(=O)[C@H](CCCCN)NC(=O)[C@H](CCCN=C(N)N)NC(=O)[C@@H](N)CC(C)C)[C@@H](C)O)C(C)C)C(=O)N[C@H](C(=O)N[C@@H](CO)C(=O)NCC(=O)O)C(C)C [LRKATRRLVQLIVSG] |  |  |  | > 25 | MIC [6]: 25 µM (≈ 42.8 µg/mL); MIC [7]: > 25 µM; MIC [8]: > 25 µM; MIC [9]: > 25 µM |
